Results: PMC6704710, “Preclinical evaluation of 3D185, a novel potent inhibitor of FGFR1/2/3 and CSF-1R, in FGFR-dependent and macrophage-dominant cancer models” (Journal of Experimental & Clinical Cancer Research : CR, 2019)

Tests used:
Assay in all cases: Eurofins kinase panel
Type in all cases: biochemical
Conditions in all cases: read-out: Inhibition rate (%)
[1] = molecular target: T1, EphB1(h) (Homo sapiens, UniProt P54762)
T1 construct: purchased Eurofins (KinaseProfiler)
T1 sequence (P54762 18-984): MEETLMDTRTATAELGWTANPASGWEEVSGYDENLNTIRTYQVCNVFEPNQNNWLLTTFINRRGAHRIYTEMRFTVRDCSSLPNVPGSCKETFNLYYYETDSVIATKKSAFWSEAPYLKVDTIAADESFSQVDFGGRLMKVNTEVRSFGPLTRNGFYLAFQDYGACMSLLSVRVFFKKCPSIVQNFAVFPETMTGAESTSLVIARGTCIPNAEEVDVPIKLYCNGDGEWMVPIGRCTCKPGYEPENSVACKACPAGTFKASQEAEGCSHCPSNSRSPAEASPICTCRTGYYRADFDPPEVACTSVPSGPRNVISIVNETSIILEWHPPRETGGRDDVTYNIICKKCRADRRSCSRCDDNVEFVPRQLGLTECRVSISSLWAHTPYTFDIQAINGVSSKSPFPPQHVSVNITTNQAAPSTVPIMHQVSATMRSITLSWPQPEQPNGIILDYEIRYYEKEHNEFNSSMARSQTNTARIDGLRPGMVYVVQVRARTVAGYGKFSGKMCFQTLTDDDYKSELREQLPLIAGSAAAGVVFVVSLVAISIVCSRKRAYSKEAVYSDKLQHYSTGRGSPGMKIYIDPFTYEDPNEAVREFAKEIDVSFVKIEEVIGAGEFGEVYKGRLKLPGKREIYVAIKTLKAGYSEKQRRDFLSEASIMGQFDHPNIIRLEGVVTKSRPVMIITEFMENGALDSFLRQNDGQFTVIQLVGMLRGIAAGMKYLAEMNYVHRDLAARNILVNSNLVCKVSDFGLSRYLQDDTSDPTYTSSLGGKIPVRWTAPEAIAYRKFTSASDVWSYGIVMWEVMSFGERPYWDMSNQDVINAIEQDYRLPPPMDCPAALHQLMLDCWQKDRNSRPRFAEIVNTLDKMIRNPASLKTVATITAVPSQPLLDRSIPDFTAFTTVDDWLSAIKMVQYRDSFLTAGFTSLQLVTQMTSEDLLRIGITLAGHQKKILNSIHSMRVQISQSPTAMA

[2] = molecular target: T2, CDKL3(h) (Homo sapiens, UniProt Q8IVW4)
T2 construct: purchased Eurofins (KinaseProfiler)

[3] = molecular target: T3, SAPK2b(h) (Homo sapiens, UniProt Q15759)
T3 construct: purchased Eurofins (KinaseProfiler)
T3 sequence (Q15759 whole entry): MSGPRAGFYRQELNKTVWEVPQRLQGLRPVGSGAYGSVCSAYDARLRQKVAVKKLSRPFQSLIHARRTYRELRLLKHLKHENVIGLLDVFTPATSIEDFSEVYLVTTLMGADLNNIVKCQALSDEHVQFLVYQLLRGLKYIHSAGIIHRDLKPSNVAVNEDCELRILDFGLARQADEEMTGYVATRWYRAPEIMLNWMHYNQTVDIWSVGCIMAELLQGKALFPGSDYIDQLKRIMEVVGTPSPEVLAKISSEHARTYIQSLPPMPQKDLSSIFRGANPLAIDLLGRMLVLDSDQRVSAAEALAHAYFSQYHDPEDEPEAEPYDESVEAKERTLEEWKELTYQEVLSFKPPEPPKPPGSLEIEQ

[4] = molecular target: T4, Rsk4(h) (Homo sapiens, UniProt Q9UK32)
T4 construct: purchased Eurofins (KinaseProfiler)

[5] = molecular target: T5, Fer(h) (Homo sapiens, UniProt P16591)
T5 construct: purchased Eurofins (KinaseProfiler)
T5 sequence (P16591 whole entry): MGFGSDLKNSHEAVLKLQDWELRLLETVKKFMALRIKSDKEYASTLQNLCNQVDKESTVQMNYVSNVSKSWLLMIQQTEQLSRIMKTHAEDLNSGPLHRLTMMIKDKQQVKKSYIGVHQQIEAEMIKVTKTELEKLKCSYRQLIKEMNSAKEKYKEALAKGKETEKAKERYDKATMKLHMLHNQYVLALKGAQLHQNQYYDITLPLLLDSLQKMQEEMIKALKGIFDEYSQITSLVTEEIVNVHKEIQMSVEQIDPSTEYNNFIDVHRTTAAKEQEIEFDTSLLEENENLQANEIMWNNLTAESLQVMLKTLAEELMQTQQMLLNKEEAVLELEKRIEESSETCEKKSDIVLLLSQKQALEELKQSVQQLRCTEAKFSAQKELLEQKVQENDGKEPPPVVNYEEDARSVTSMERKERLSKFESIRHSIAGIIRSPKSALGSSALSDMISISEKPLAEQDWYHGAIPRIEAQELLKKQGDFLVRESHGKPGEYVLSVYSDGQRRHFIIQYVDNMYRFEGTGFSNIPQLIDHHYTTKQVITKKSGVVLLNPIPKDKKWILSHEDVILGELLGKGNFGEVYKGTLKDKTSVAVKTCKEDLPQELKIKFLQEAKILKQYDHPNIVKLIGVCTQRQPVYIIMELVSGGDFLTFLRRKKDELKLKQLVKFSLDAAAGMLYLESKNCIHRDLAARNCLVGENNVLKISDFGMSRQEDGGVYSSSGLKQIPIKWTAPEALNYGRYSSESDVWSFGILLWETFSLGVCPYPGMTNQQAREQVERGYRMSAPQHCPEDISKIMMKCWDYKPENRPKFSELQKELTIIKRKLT

[6] = molecular target: T6, STK32C(h) (Homo sapiens, UniProt Q86UX6)
T6 construct: purchased Eurofins (KinaseProfiler)
T6 sequence (Q86UX6 whole entry): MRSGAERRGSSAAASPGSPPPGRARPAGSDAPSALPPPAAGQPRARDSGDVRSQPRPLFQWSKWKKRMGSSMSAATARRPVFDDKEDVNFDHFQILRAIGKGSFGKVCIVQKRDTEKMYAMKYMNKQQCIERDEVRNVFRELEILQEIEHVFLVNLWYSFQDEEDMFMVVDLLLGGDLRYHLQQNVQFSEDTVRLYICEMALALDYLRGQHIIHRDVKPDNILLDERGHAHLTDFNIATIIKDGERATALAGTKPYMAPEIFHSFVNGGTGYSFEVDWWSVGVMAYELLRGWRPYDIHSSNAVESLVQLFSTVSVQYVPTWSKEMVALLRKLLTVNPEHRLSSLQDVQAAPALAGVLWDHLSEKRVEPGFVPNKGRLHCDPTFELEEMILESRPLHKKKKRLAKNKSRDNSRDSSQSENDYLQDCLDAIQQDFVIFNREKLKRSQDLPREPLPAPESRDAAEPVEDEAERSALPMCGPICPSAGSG

[7] = molecular target: T7, Plk1(h) (Homo sapiens, UniProt P53350)
T7 construct: purchased Eurofins (KinaseProfiler)
T7 sequence (P53350 whole entry): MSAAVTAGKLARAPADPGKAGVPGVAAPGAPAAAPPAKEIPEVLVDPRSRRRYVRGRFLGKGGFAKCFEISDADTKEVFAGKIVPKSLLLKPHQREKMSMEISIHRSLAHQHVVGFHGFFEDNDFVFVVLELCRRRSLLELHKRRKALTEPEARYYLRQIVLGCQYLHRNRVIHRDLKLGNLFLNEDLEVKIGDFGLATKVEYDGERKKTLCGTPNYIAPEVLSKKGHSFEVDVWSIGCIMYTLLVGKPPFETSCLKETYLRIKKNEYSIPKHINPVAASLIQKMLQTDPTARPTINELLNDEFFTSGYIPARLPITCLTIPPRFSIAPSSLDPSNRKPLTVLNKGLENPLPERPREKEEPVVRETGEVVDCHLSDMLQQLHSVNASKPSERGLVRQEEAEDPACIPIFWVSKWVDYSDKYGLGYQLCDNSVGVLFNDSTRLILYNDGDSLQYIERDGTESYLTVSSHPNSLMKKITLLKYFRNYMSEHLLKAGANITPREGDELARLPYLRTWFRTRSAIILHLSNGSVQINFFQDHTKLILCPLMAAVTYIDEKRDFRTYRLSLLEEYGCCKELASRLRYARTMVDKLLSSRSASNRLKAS

[8] = molecular target: T8, TGFBR1(h) (Homo sapiens, UniProt P36897)
T8 construct: purchased Eurofins (KinaseProfiler)
T8 sequence (P36897 34-503): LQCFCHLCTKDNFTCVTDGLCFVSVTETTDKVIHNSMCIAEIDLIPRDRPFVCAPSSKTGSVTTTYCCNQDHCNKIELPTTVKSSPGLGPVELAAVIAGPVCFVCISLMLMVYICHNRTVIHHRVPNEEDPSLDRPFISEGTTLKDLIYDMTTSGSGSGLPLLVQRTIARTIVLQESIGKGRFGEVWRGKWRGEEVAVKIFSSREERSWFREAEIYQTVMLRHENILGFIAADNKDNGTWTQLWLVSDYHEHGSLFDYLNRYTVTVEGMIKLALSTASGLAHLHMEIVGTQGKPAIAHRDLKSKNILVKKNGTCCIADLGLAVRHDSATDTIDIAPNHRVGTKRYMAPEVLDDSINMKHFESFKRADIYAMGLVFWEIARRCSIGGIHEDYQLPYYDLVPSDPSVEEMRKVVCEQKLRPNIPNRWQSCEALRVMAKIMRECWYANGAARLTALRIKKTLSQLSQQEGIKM

[9] = molecular target: T9, Wee1B(h) (Homo sapiens, UniProt P0C1S8)
T9 construct: purchased Eurofins (KinaseProfiler)
T9 sequence (P0C1S8 whole entry): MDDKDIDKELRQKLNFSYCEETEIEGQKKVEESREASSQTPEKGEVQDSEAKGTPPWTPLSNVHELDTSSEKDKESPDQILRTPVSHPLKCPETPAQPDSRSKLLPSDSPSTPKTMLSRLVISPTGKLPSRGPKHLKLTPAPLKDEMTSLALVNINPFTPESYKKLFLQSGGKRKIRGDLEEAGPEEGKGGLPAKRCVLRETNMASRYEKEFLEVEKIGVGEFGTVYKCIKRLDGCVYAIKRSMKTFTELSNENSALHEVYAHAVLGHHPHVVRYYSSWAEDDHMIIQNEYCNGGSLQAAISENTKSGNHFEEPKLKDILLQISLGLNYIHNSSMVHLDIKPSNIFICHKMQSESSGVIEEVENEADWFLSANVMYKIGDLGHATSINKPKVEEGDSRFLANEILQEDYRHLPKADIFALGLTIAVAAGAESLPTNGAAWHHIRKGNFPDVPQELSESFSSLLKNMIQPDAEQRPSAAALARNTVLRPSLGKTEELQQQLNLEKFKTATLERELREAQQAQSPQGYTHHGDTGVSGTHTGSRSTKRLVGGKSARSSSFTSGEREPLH

[10] = molecular target: T10, EphA7(h) (Homo sapiens, UniProt Q15375)
T10 construct: purchased Eurofins (KinaseProfiler)
T10 sequence (Q15375 28-998): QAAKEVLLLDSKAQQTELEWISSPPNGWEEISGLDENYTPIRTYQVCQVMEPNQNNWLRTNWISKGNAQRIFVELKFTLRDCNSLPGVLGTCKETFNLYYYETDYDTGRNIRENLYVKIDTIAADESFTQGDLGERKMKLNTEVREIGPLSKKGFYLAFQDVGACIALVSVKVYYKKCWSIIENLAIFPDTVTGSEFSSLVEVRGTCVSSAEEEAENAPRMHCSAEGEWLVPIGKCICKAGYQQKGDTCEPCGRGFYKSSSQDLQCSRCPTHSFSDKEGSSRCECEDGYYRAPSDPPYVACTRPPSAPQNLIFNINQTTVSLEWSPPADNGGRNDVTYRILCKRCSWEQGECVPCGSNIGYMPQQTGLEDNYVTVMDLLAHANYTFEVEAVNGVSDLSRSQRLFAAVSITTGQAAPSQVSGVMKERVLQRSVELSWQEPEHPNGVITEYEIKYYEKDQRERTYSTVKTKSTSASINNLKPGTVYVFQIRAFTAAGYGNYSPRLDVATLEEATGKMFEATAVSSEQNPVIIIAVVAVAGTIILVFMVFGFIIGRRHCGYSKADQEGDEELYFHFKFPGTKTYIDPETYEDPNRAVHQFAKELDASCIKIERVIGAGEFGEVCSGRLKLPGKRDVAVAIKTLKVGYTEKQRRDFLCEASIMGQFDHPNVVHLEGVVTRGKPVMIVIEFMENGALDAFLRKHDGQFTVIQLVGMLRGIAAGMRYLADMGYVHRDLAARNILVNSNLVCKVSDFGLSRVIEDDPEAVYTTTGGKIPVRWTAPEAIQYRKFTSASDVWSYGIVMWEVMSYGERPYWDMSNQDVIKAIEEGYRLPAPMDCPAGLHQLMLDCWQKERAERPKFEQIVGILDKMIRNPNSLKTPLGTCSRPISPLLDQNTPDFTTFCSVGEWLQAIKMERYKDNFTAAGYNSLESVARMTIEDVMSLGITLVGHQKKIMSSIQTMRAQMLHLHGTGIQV

[11] = molecular target: T11, WNK1(h) (Homo sapiens, UniProt Q9H4A3)
T11 construct: purchased Eurofins (KinaseProfiler)

[12] = molecular target: T12, VRK2(h) (Homo sapiens, UniProt Q86Y07)
T12 construct: purchased Eurofins (KinaseProfiler)
T12 sequence (Q86Y07 whole entry): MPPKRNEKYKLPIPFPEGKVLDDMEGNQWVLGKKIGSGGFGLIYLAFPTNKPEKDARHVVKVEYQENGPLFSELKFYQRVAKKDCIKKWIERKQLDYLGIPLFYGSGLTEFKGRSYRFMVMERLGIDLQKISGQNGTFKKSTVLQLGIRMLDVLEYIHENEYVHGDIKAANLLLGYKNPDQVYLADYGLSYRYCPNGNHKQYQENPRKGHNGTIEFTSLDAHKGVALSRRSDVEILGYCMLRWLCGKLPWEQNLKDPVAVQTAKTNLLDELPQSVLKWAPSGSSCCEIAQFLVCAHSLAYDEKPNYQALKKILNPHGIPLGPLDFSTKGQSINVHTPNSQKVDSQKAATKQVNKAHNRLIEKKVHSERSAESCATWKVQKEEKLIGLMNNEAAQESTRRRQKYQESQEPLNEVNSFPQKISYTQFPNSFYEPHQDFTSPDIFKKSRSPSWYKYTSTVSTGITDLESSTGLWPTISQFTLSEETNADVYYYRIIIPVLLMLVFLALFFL

[13] = molecular target: T13, MLCK(h) (Homo sapiens, UniProt Q15746)
T13 construct: purchased Eurofins (KinaseProfiler)

[14] = molecular target: T14, SAPK2a(h) (Homo sapiens, UniProt Q16539)
T14 construct: purchased Eurofins (KinaseProfiler)
T14 sequence (Q16539 whole entry): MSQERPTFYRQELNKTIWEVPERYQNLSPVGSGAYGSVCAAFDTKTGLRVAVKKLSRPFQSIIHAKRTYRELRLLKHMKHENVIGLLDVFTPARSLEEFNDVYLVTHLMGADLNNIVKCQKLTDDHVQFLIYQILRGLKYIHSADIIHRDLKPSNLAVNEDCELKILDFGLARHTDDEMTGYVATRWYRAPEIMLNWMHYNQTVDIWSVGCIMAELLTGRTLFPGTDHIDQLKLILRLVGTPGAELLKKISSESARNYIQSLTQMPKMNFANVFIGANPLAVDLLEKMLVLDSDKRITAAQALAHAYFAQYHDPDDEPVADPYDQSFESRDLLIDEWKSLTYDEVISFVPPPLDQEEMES

Question: COc1cc(OC)c(Cl)c(-c2ccc3c(NC(=O)c4ccc(N5CCNC(C)(C)C5)cc4)n[nH]c3n2)c1Cl [3D185] was tested. Which inhibition at 0.01 µM ([1]; 10 nM) did it give?
Answer: -9%

Question: What about the inhibition at 0.1 µM ([1]; 100 nM) of the same compound?
Answer: 1%

Question: What about the inhibition at 1 µM ([1]; 1000 nM) of the same compound?
Answer: 36%

Question: What about the inhibition at 0.01 µM ([2]; 10 nM) of the same compound?
Answer: -12%

Question: And the inhibition at 0.1 µM ([2]; 100 nM)?
Answer: -17%

Question: What about the inhibition at 1 µM ([2]; 1000 nM) of the same compound?
Answer: -9%

Question: And the inhibition at 0.01 µM ([3]; 10 nM)?
Answer: 3%

Question: What about the inhibition at 0.1 µM ([3]; 100 nM) of the same compound?
Answer: 14%

Question: What about the inhibition at 1 µM ([3]; 1000 nM) of the same compound?
Answer: 20%

Question: What about the inhibition at 0.01 µM ([4]; 10 nM) of the same compound?
Answer: 0%

Question: And the inhibition at 0.1 µM ([4]; 100 nM)?
Answer: 6%

Question: And the inhibition at 1 µM ([4]; 1000 nM)?
Answer: 19%

Question: What about the inhibition at 0.01 µM ([5]; 10 nM) of the same compound?
Answer: -11%

Question: And the inhibition at 0.1 µM ([5]; 100 nM)?
Answer: 0%

Question: And the inhibition at 1 µM ([5]; 1000 nM)?
Answer: 42%

Question: And the inhibition at 0.01 µM ([6]; 10 nM)?
Answer: 11%

Question: What about the inhibition at 0.1 µM ([6]; 100 nM) of the same compound?
Answer: 8%

Question: What about the inhibition at 1 µM ([6]; 1000 nM) of the same compound?
Answer: 7%

Question: What about the inhibition at 0.01 µM ([7]; 10 nM) of the same compound?
Answer: -6%

Question: What about the inhibition at 0.1 µM ([7]; 100 nM) of the same compound?
Answer: 2%

Question: And the inhibition at 1 µM ([7]; 1000 nM)?
Answer: -4%

Question: What about the inhibition at 0.01 µM ([8]; 10 nM) of the same compound?
Answer: -15%

Question: And the inhibition at 0.1 µM ([8]; 100 nM)?
Answer: -19%

Question: And the inhibition at 1 µM ([8]; 1000 nM)?
Answer: -17%

Question: What about the inhibition at 0.01 µM ([9]; 10 nM) of the same compound?
Answer: 9%

Question: What about the inhibition at 0.1 µM ([9]; 100 nM) of the same compound?
Answer: -2%

Question: What about the inhibition at 1 µM ([9]; 1000 nM) of the same compound?
Answer: 9%

Question: And the inhibition at 0.01 µM ([10]; 10 nM)?
Answer: 0%

Question: And the inhibition at 0.1 µM ([10]; 100 nM)?
Answer: 8%

Question: And the inhibition at 1 µM ([10]; 1000 nM)?
Answer: 21%

Question: And the inhibition at 0.01 µM ([11]; 10 nM)?
Answer: 3%

Question: And the inhibition at 0.1 µM ([11]; 100 nM)?
Answer: 2%

Question: What about the inhibition at 1 µM ([11]; 1000 nM) of the same compound?
Answer: 16%

Question: What about the inhibition at 0.01 µM ([12]; 10 nM) of the same compound?
Answer: 4%

Question: What about the inhibition at 0.1 µM ([12]; 100 nM) of the same compound?
Answer: 11%

Question: What about the inhibition at 1 µM ([12]; 1000 nM) of the same compound?
Answer: 17%

Question: And the inhibition at 0.01 µM ([13]; 10 nM)?
Answer: 5%

Question: And the inhibition at 0.1 µM ([13]; 100 nM)?
Answer: -1%

Question: What about the inhibition at 1 µM ([13]; 1000 nM) of the same compound?
Answer: 11%

Question: And the inhibition at 0.01 µM ([14]; 10 nM)?
Answer: -7%

Question: What about the inhibition at 0.1 µM ([14]; 100 nM) of the same compound?
Answer: -2%

Question: What about the inhibition at 1 µM ([14]; 1000 nM) of the same compound?
Answer: -4%
